The values below come from ChEMBL document CHEMBL2203271, “Pharmaceutical composition comprising indole compound for treatment of diseases associated with oxidative stress: patent highlight” (ACS Med Chem Lett, 2012).

Structures are written as SMILES.

As usually defined, the IC50 is the concentration that gives 50% inhibition. Low readings indicate inhibition by little substance, high ones a need for much substance.

The test system of the experiment is H9c2. Briefly: Cytoprotective activity against tBOOH-induced oxidative stress in rat H9c2 cells after 2 hrs by SRB assay. The settings on record: H9c2, 2 h. It counts as functional, cell-based. For orientation: In SRB staining, fixed cells bind dye roughly in proportion to their protein.

Compound `c1ccc(-c2nc3cccc(NC4CCOC4)c3[nH]2)cc1` (configuration not stated) had an IC50 of 2000 nM.
Under `c1ccc(-c2nc3cccc(NC4CCCC4)c3[nH]2)cc1` stands 600 nM.
